Experimental data reported in patent US20160038532A1, “Treatment of Multiple Sclerosis With Combination of Laquinimod and Glatiramer Acetate” (TEVA PHARMACEUTICAL INDUSTRIES, LTD., priority 2011, published 2016).
Read-outs that look alike come from different tables or passages of the source.

Tests used:
MOG-induced EAE [1] = assay: MOG-induced EAE with GA blocking and s.c. daily GA (Example 2.5); type: in vivo, C57B1 mice; design: key to MMS value / GMS value: EAE clinical grade (Table 2); ≥1 = sick, 6 = dead/sacrificed
Method: The objective of this study was to test the suppressive effect of laquinimod alone and in combination with Glatiramer acetate in the EAE model in C57B1 mice. […] Laquinimod was administered orally at dose levels of 2.5 and 5.0 mg/kg.
EAE was induced in the mice by the injection of the encephalitogenic emulsion (MOG/CFA). Laquinimod was administered orally for 30 consecutive days.
EAE induction EAE was induced by injecting the encephalitogenic mixture (emulsion) consisting of MOG ([…]). A 0.2 ml emulsion was injected subcutaneously into the flanks of the mice. Pertussis toxin was injected intraperitoneally on the day of induction and 48 hours later (total amount will be 0.150+0.150=0.300 μg/mouse in 0.2 ml dosage volume).
Groups 1, 3-8: 45.9 mg MOG was diluted in […] Normal Saline (3.0 mg/ml MOG stock solution). 12.5 mL of 3.0 mg/ml stock solution was diluted in 12.5 mL Normal Saline to yield 1.5 mg MOG/mL. […] The emulsification was made from equal parts of oil and liquid portions (1:1) in two syringes connected to each other with Leur lock, transferred to insulin syringe and 0.2 ml was injected the right flank of each mouse. The dose of the MOG in all the groups (1 to 8) was […].
The test concentrations of laquinimod were prepared in purified water. For high dose (25.0 mg/kg) 2.5 mg/mL stock solution was prepared (group 8). The 2.5 mg/mL stock solution was diluted 1:5 and 1:10 to yield 0.5 and 0.25 mg/mL for dose levels of 5.0 mg/kg for groups 5 and 7 and 2.5 mg/kg respectively for groups #4 and 6. Laquinimod was administered daily from the initiation of the study, to the respective groups by gavage at a volume of 0.2 ml/mouse.
Every day one tube was thawed and brought to RT.
Clinical signs Scoring of EAE clinical signs was started from Day 10 post EAE induction and was continued daily until Day 30. The clinical signs were recorded according to a grading system described in the Table 2 above.
All mice having scores of 1 and above were considered sick. When the first clinical sign appeared all mice were given food soaked in water, which was spread on different places on the bedding of the cages. An animal which continued to have score 5 for three days was killed on humane grounds and given score 6 on the next day. For calculation purposes, the score of animals that were sacrificed or died (6) was carried forward.

[2] = system: relapsing remitting (RR) EAE; assay: Relapsing remitting EAE in Biozzi mice, combination study (Example 2.6); type: in vivo; design: MMS value / IMS value: scale not given here; settings: for inhibition at 5 mg/kg / inhibition at 12.5 mg/kg / inhibition at 25 mg/kg: Mus musculus, 1416 h
Method: EAE is an animal model for multiple sclerosis. In the Biozzi AB/H EAE mice, a RR EAE can be induced. […] Re-injection of an encephalitogen can induce a chronic relapsing disease that enables measuring long-term effects on subsequent relapses rather than immediate effects.
The EAE induction was performed according to procedure “RR-EAE.Biozzi” The Biozzi mice were weighed and injected subcutaneously and re-injected one week later with encephalitogenic agent (MSCH emulsion). 0.3 mL of the encephalitogenic agent containing 1.0 mg of MSCH and 200.0 μg of MT was injected subcutaneously, at two sites in the right flank of each mouse (0.15 mL at each site). The second injection was done in a similar manner in the left flank, one week later.
On the day of first injection of encephalotigen, the Biozzi mice were randomly allocated to eight treatment groups as follows: Tables 16-17.
The 5.0 mg/mL laquinimod stock solution was diluted 1:5 to yield 1 mg/mL.
The mice in all the groups were administered daily by oral gavage a volume dose level of […] of the respective test formulations from the day the mice are allocated to the treatment groups (first injection of encephalitogen) for 59 consecutive days until the termination of the study.
The mice were examined and scored according to the following table, until the termination of the study (60 days after initiation of treatment).
The activity of the test articles for the first and second phase of RR EAE was calculated by comparing the incidence of disease, mortality, onset and duration of disease, group mean score and mean maximal score to the control group. Calculations were carried separately and together for the first and the second relapse.

MOG-induced EAE [3] = assay: Summary of studies of GA-blocking + laquinimod in MOG-induced EAE (Examples 2.1-2.3); type: in vivo, mice; settings: Mus musculus, alone or + GA Blocking, read-out: Mean percent inhibition, Examples 2.1-2.3 summarized
Method: FIG. 4 is a graphical representation summarizing experimental results from Examples 2.1-2.3.
At higher doses (5 and 25 mg/kg) laquinimod provides an additive effect over GA-blocking as summarized in Table 9 and shown on FIGS. 4A and 4B.

[4] = LAQ 2.5 mg/kg oral daily 30 d, alone or + GA 250 mg/kg s.c. daily 10 d
[5] = LAQ 2.5 mg/kg oral daily 30 d, alone or + GA 250 mg/kg s.c. daily 10 d, listed as LAQ
[6] = LAQ 5.0 mg/kg oral daily 30 d, alone or + GA 250 mg/kg s.c. daily 10 d
[7] = first and second attacks together, laquinimod 5.0 mg/kg oral daily 59 d, alone or + GA 12.5 mg/kg oral
[8] = first and second attacks together, laquinimod 12.5 mg/kg oral daily 59 d
[9] = first and second attacks together, laquinimod 25.0 mg/kg oral daily 59 d, alone or + GA 12.5 mg/kg oral
[10] = first attack, LAQ 5.0 mg/kg oral daily, alone or + GA 12.5 mg/kg oral
[11] = first attack, LAQ 12.5 mg/kg oral daily
[12] = first attack, LAQ 25.0 mg/kg oral daily, alone or + GA 12.5 mg/kg oral
[13] = second attack, LAQ 5.0 mg/kg oral daily, alone or + GA 12.5 mg/kg oral
[14] = second attack, LAQ 12.5 mg/kg oral daily
[15] = second attack, LAQ 25.0 mg/kg oral daily, alone or + GA 12.5 mg/kg oral

SMILES: CCN(C(=O)c1c(O)c2c(Cl)cccc2n(C)c1=O)c1ccccc1 [laquinimod]
- % Inhibition 1 (incidence) (MOG-induced EAE [1]; [4]): 57.1%
- GMS value (MOG-induced EAE [1]; [4]): 0.5 ± 0.8
- Incidence (MOG-induced EAE [1]; [4]): 6/15
- MMS % Inhibition 2 (MOG-induced EAE [1]; [4]): 55.9%
- MMS value (MOG-induced EAE [1]; [4]): 1.5 ± 2.1
- Mean Duration (MOG-induced EAE [1]; [4]): 0.8 ± 2.6 days
- Mean Onset (MOG-induced EAE [1]; [4]): 30.3 ± 2.6 days
- Mortality (MOG-induced EAE [1]; [4]): One
- GMS % Inhibition 3 (MOG-induced EAE [1]; [5]): 76.2%
- Mortality (MOG-induced EAE [1]; [5]): 1/15
- GMS % Inhibition 3 (MOG-induced EAE [1]; LAQ 2.5 mg/kg oral daily 30 d, alone or + GA 250 mg/kg s.c. daily 10 d, listed as LQ): 76.2%
- % Inhibition 1 (incidence) (MOG-induced EAE [1]; [6]): 64.3%
- GMS value (MOG-induced EAE [1]; [6]): 0.6 ± 0.7
- Incidence (MOG-induced EAE [1]; [6]): 9/15
- MMS % Inhibition 2 (MOG-induced EAE [1]; [6]): 38.2%
- MMS value (MOG-induced EAE [1]; [6]): 2.1 ± 1.8
- Mean Duration (MOG-induced EAE [1]; [6]): 5.7 ± 6.6 days
- Mean Onset (MOG-induced EAE [1]; [6]): 25.1 ± 6.8 days
- Mortality (MOG-induced EAE [1]; [6]): 0/15
- % Inhibition 1 (incidence) (MOG-induced EAE [1]; LAQ 25.0 mg/kg oral daily 30 d): 100.0%
- GMS % Inhibition 3 (MOG-induced EAE [1]; LAQ 25.0 mg/kg oral daily 30 d): 100.0%
- GMS value (MOG-induced EAE [1]; LAQ 25.0 mg/kg oral daily 30 d): 0.0 ± 0.0
- Incidence (MOG-induced EAE [1]; LAQ 25.0 mg/kg oral daily 30 d): 0/15
- MMS % Inhibition 2 (MOG-induced EAE [1]; LAQ 25.0 mg/kg oral daily 30 d): 100.00%
- MMS value (MOG-induced EAE [1]; LAQ 25.0 mg/kg oral daily 30 d): 0.0 ± 0.0
- Mean Duration (MOG-induced EAE [1]; LAQ 25.0 mg/kg oral daily 30 d): 31.0 ± 0.0 days
- Mean Onset (MOG-induced EAE [1]; LAQ 25.0 mg/kg oral daily 30 d): 0.0 ± 0.0 days
- Mortality (MOG-induced EAE [1]; LAQ 25.0 mg/kg oral daily 30 d): 0/15
- GMS % Inhibition 3 (MOG-induced EAE [1]; LAQ 25.0 mg/kg oral daily 30 d, listed as LAQ): 100.00%
- GMS % Inhibition 3 (MOG-induced EAE [1]; LAQ 25.0 mg/kg oral daily 30 d, listed as LQ): 100%
- inhibition at 5 mg/kg ([2]; first and second attacks together, laquinimod 5.0 mg/kg oral daily 59 d, alone or + GA 12.5 mg/kg oral, read-out: GMS % inhibition): 21.7%
- inhibition at 5 mg/kg ([2]; first and second attacks together, laquinimod 5.0 mg/kg oral daily 59 d, alone or + GA 12.5 mg/kg oral, read-out: Incidence % inhibition): 23.1%
- inhibition at 5 mg/kg ([2]; first and second attacks together, laquinimod 5.0 mg/kg oral daily 59 d, alone or + GA 12.5 mg/kg oral, read-out: MMS % inhibition): 16.2%
- inhibition at 12.5 mg/kg ([2]; first and second attacks together, laquinimod 12.5 mg/kg oral daily 59 d, read-out: GMS % inhibition): 43.5%
- inhibition at 12.5 mg/kg ([2]; first and second attacks together, laquinimod 12.5 mg/kg oral daily 59 d, read-out: Incidence % inhibition): 23.1%
- inhibition at 12.5 mg/kg ([2]; first and second attacks together, laquinimod 12.5 mg/kg oral daily 59 d, read-out: MMS % inhibition): 22.2%
- inhibition at 25 mg/kg ([2]; first and second attacks together, laquinimod 25.0 mg/kg oral daily 59 d, alone or + GA 12.5 mg/kg oral, read-out: GMS % inhibition): 30.4%
- inhibition at 25 mg/kg ([2]; first and second attacks together, laquinimod 25.0 mg/kg oral daily 59 d, alone or + GA 12.5 mg/kg oral, read-out: Incidence % inhibition): 30.8%
- inhibition at 25 mg/kg ([2]; first and second attacks together, laquinimod 25.0 mg/kg oral daily 59 d, alone or + GA 12.5 mg/kg oral, read-out: MMS % inhibition): 27.8%
- GMS value [2, 7]: 1.8
- Incidence [2, 7]: 10/14
- MMS value [2, 7]: 3.1
- Mean Duration [2, 7]: 26.5 ± 17.0 days
- Mortality [2, 7]: 0/14
- GMS value [2, 8]: 1.3
- Incidence [2, 8]: 10/14
- MMS value [2, 8]: 2.8
- Mean Duration [2, 8]: 17.5 ± 14.0 days
- Mortality [2, 8]: 0/14
- GMS value [2, 9]: 1.6
- Incidence [2, 9]: 9/14
- MMS value [2, 9]: 2.6
- Mean Duration [2, 9]: 23.0 ± 16.4 days
- Mortality [2, 9]: 0/14
- IMS value [2, 10]: 42.9 ± 29.8
- Incidence [2, 10]: 10/14
- MMS % Inhibition 2 [2, 10]: 19.4%
- MMS value [2, 10]: 2.9 ± 1.9
- Mean Duration [2, 10]: 15.4 ± 10.9 days
- Mortality [2, 10]: 0/14
- IMS % Inhibition 3 ([2]; first attack, LAQ 5.0 mg/kg oral daily, alone or + GA 12.5 mg/kg oral, listed as LAQ): 15.6%
- IMS % Inhibition 3 [2, 11]: 53.3%
- IMS value [2, 11]: 32.4 ± 24.9
- Incidence [2, 11]: 10/14
- MMS % Inhibition 2 [2, 11]: 25.0%
- MMS value [2, 11]: 2.7 ± 1.9
- Mean Duration [2, 11]: 9.6 ± 8.6 days
- Mortality [2, 11]: 0/14
- IMS % Inhibition 3 [2, 12]: 42.8%
- IMS value [2, 12]: 39.7 ± 32.3
- Incidence [2, 12]: 9/14
- MMS value [2, 12]: 2.6 ± 2.0
- Mean Duration [2, 12]: 13.9 ± 10.0 days
- Mortality [2, 12]: 0/14
- % Inhibition 1 (incidence) [2, 13]: 1.8%
- IMS % Inhibition 3 [2, 13]: 18.4%
- IMS value [2, 13]: 38.6 ± 28.5
- Incidence [2, 13]: 10/14
- MMS % Inhibition 2 [2, 13]: 3.4%
- MMS value [2, 13]: 2.8 ± 1.8
- Mean Duration [2, 13]: 11.4 ± 11.5 days
- Mortality [2, 13]: 0/14
- % Inhibition 1 (incidence) [2, 14]: 11.6%
- IMS % Inhibition 3 [2, 14]: 41.4%
- IMS value [2, 14]: 27.7 ± 23.1
- Incidence [2, 14]: 9/14
- MMS % Inhibition 2 [2, 14]: 13.8%
- MMS value [2, 14]: 2.5 ± 2.0
- Mean Duration [2, 14]: 7.9 ± 6.5 days
- Mortality [2, 14]: 0/14
- % Inhibition 1 (incidence) [2, 15]: 21.5%
- IMS % Inhibition 3 [2, 15]: 29.2%
- IMS value [2, 15]: 33.5 ± 32.2
- Incidence [2, 15]: 8/14
- MMS % Inhibition 2 [2, 15]: 20.7%
- MMS value [2, 15]: 2.3 ± 2.1
- Mean Duration [2, 15]: 9.1 ± 8.6 days
- Mortality [2, 15]: 0/14
- inhibition at 2.5 mg/kg (MOG-induced EAE [3]; laquinimod 2.5 mg/kg): 53.6%
- inhibition at 5 mg/kg (MOG-induced EAE [3]; laquinimod 5 mg/kg): 57.3%
- inhibition at 25 mg/kg (MOG-induced EAE [3]; laquinimod 25 mg/kg): 74.9%
